Measured values published in PMC2248166, “Quantitative peptide binding motifs for 19 human and mouse MHC class I molecules derived using positional scanning combinatorial peptide libraries” (Immunome Research, 2008).
Where a SMILES comes first, the peptide text is derived from it.

Assays:
[1] = target: HLA B*1503 (Homo sapiens, UniProt P01889, A329T/A93T/A95T/C349S/D201E/D98Y/E187L/E204Q/K202T/N87E/Q94N/R155S/R180L/S121R/S35A/V306I/V36M/Y140S/Y91S); assay: biochemical; type: binding
[2] = target: HLA A*3201 (Homo sapiens, UniProt P04439, A270S/D101S/D185E/E176V/E277Q/F133L/G103R/G107R/G231S/H175R/I121M/I218V/I322F/K168Q/L105A/L300P/L318F/M331R/P208A/P217A/Q94H/R106L/R138Q/S129P/T104I/T323A/T345S/V100E/V321M/V358M); assay: biochemical; type: binding

| Compound | IC50 [1] | IC50 [2] |
| --- | --- | --- |
| CC[C@H](C)[C@H](NC(=O)[C@H](Cc1ccc(O)cc1)NC(=O)[C@H](Cc1c[nH]c2ccccc12)NC(=O)[C@H](CCSC)NC(=O)[C@@H](N)CO)C(=O)N1CCC[C@H]1C(=O)N[C@@H](CC(N)=O)C(=O)N[C@H](C(=O)N[C@@H](Cc1ccccc1)C(=O)O)C(C)C [3102.1192] (H-SMWYIPNVF-OH) | 0.72 nM | 5.1 nM |
| CC[C@H](C)[C@H](N)C(=O)N[C@@H](CC(C)C)C(=O)N[C@@H](CCSC)C(=O)N[C@H](C(=O)N[C@@H](Cc1ccccc1)C(=O)N[C@H](C(=O)N[C@@H](CO)C(=O)N[C@@H](CO)C(=O)N[C@@H](Cc1ccccc1)C(=O)O)[C@@H](C)CC)[C@@H](C)CC [3102.1302] (H-ILMIFISSF-OH) | 12 nM | 87 nM |
| CC[C@H](C)[C@H](NC(=O)[C@H](CCCCN)NC(=O)[C@H](Cc1ccc(O)cc1)NC(=O)[C@H](Cc1ccccc1)NC(=O)[C@H](CCSC)NC(=O)[C@H](Cc1ccc(O)cc1)NC(=O)[C@H](CCC(N)=O)NC(=O)[C@@H](N)CCCNC(=N)N)C(=O)N[C@@H](Cc1ccccc1)C(=O)O [3102.1055] (H-RQYMFYKIF-OH) | 0.07 nM | 19 nM |
| CC[C@H](C)[C@H](N)C(=O)N[C@@H](CCSC)C(=O)N[C@@H](Cc1ccccc1)C(=O)N[C@@H](C)C(=O)N[C@@H](CCCCN)C(=O)N[C@H](C(=O)N[C@@H](CC(C)C)C(=O)N[C@@H](CC(=O)O)C(=O)N[C@@H](Cc1ccccc1)C(=O)O)[C@@H](C)O [3102.1190] (H-IMFAKTLDF-OH) | 0.31 nM | 6.8 nM |
| CC[C@H](C)[C@H](NC(=O)[C@@H](NC(=O)[C@@H]1CCCN1C(=O)[C@H](CC(C)C)NC(=O)[C@H](Cc1ccccc1)NC(=O)[C@H](CO)NC(=O)[C@H](CCSC)NC(=O)[C@@H](N)CCCCN)[C@@H](C)CC)C(=O)N[C@@H](Cc1ccccc1)C(=O)O [3102.1291] (H-KMSFLPIIF-OH) | 0.08 nM | 6.7 nM |
| CC[C@H](C)[C@H](NC(=O)[C@H](C)NC(=O)[C@H](CC(N)=O)NC(=O)[C@@H](NC(=O)[C@@H]1CCCN1C(=O)[C@H](CCC(=O)O)NC(=O)[C@@H](NC(=O)[C@H](CC(C)C)NC(=O)[C@@H](N)CCCCN)[C@@H](C)CC)C(C)C)C(=O)O [3102.0321] (H-KLIEPVNAI-OH) | – | 11 nM |
| CC[C@H](C)[C@H](NC(=O)[C@H](CC(N)=O)NC(=O)[C@H](CC(N)=O)NC(=O)[C@H](CC(C)C)NC(=O)[C@@H](NC(=O)[C@H](CC(N)=O)NC(=O)[C@H](Cc1ccc(O)cc1)NC(=O)[C@H](CC(C)C)NC(=O)[C@@H](N)Cc1c[nH]cn1)[C@@H](C)CC)C(=O)O [3102.0432] (H-HLYNILNNI-OH) | – | 73 nM |
| CC[C@H](C)[C@H](NC(=O)[C@H](CO)NC(=O)[C@@H](NC(=O)[C@@H](NC(=O)[C@H](Cc1c[nH]c2ccccc12)NC(=O)[C@H](CCCCN)NC(=O)[C@H](CCSC)NC(=O)[C@H](CCSC)NC(=O)[C@@H](N)CCSC)[C@@H](C)CC)[C@@H](C)CC)C(=O)O [3102.0357] (H-MMMKWIISI-OH) | – | 0.17 nM |
| CC[C@H](C)[C@H](NC(=O)[C@@H](NC(=O)[C@@H](NC(=O)[C@H](CC(N)=O)NC(=O)[C@H](Cc1ccccc1)NC(=O)[C@H](Cc1ccccc1)NC(=O)[C@@H](NC(=O)[C@@H](NC(=O)[C@@H](N)C(C)C)C(C)C)[C@@H](C)CC)[C@@H](C)O)[C@@H](C)CC)C(=O)O [3102.0431] (H-VVIFFNTII-OH) | – | 15 nM |
| CSCC[C@H](NC(=O)[C@H](CCCCN)NC(=O)[C@H](CC(N)=O)NC(=O)[C@H](CC(C)C)NC(=O)[C@@H](N)CCCCN)C(=O)N[C@H](C(=O)N[C@H](C(=O)N[C@@H](CCC(=O)O)C(=O)N[C@@H](CC(C)C)C(=O)O)C(C)C)[C@@H](C)O [3102.0316] (H-KLNKMTVEL-OH) | – | 1.7 nM |
| CC[C@H](C)[C@H](NC(=O)[C@H](CC(N)=O)NC(=O)[C@H](CCSC)NC(=O)[C@H](CCSC)NC(=O)[C@@H](N)Cc1ccc(O)cc1)C(=O)N[C@@H](Cc1ccc(O)cc1)C(=O)N[C@@H](CC(C)C)C(=O)N[C@@H](CC(N)=O)C(=O)N[C@@H](Cc1ccccc1)C(=O)O [3102.0446] (H-YMMNIYLNF-OH) | – | 2.9 nM |
